Data reported in patent US20250041387A1, “POLYPEPTIDE SEQUENCE OF KDM6B AND APPLICATION OF KDM6B IN REGULATING AND CONTROLLING FUNCTION OF MESENCHYMAL STEM CELL” (BEIJING STOMATOLOGICAL HOSPITAL, CAPITAL MEDICAL UNIVERSITY, priority 2021, published 2025).
Values joined by “and” are separate entries in the source; they are usually repeats but may differ in a detail not shown here. Equal entries are not always repeated.

Tests used:
[1] = system: minipig periodontitis model with bone defect; assay: Minipig periodontitis model, new bone volume by CBCT three-dimensional reconstruction; assay type: in vivo, Wuzhishan minipigs; details: week 12 after injection, 60 μl per side; individual sides; FIG. 9; listed as 114 peptide
Excerpt: Method: An experimental minipig periodontitis model was established by creating bone defect and ligating silk threads. Specifically, minipigs were conventionally anaesthetized, and extraorally disinfected. The mandibular first permanent molar of the minipig was selected as the experimental tooth, which was subjected to intra-sulcal incision and vertical incision. The mucoperiosteal flap was opened, the mesia-buccal root of the mandibular first permanent molar of the minipig was exposed by bone removal, and a bone defect with a size of 3 mm×5 mm×7 mm was created. That is, 3 mm×5 mm×7 mm of the mesial proximal alveolar bone was removed, and the mesiobuccal root buccal bone plate and distal alveolar bone (3 mm×5 mm, the gingival depth was level with the mesial proximal surface) were removed. The suture in situ was performed. The experimental tooth neck was ligated with silk threads. […]
Drug injection treatment was performed 4 weeks after the modeling operation. The effect of bioactive polypeptide 114 on the regeneration and repair capacity of defected tissues mediated by stem cells in minipigs of periodontitis was assessed by comparing the clinical indicators and imaging examination after modeling (−4 w), 4 weeks after modeling without drug injection (0 w) and 3 months after drug treatment (12 w). […]

[2] = system: minipig periodontitis model with bone defect; assay: Minipig periodontitis model, clinical indicators (PD, AL, GR) and intraoral observation; assay type: in vivo, Wuzhishan minipigs; set-up: attachment loss (AL) / gingival recession (GR): unit not given here; details: for attachment loss (AL) / gingival recession (GR) / probing depth (PD): individual sides
Excerpt: Method: An experimental minipig periodontitis model was established by creating bone defect and ligating silk threads. Specifically, minipigs were conventionally anaesthetized, and extraorally disinfected. The mandibular first permanent molar of the minipig was selected as the experimental tooth, which was subjected to intra-sulcal incision and vertical incision. The mucoperiosteal flap was opened, the mesia-buccal root of the mandibular first permanent molar of the minipig was exposed by bone removal, and a bone defect with a size of 3 mm×5 mm×7 mm was created. That is, 3 mm×5 mm×7 mm of the mesial proximal alveolar bone was removed, and the mesiobuccal root buccal bone plate and distal alveolar bone (3 mm×5 mm, the gingival depth was level with the mesial proximal surface) were removed. The suture in situ was performed. The experimental tooth neck was ligated with silk threads. […] The successful establishment of periodontal bone defect model was verified by CT imaging and clinical examination.
12 Wuzhishan minipigs were used to establish periodontitis model, with a total of 24 sides, which were randomly divided into 3 groups. Each side was injected with a drug at an amount of 60 μl. Group 1: flap surgery with scraping+injection of sterile saline after modeling (untreated control group); group 2: flap surgery with scraping+injection of control polypeptide after modeling (control group); group 3: flap surgery with scraping+injection of bioactive polypeptide 114 after modeling (experimental group).
Drug injection treatment was performed 4 weeks after the modeling operation. The effect of bioactive polypeptide 114 on the regeneration and repair capacity of defected tissues mediated by stem cells in minipigs of periodontitis was assessed by comparing the clinical indicators and imaging examination after modeling (−4 w), 4 weeks after modeling without drug injection (0 w) and 3 months after drug treatment (12 w).
Clinical indicators (PD, AL and GR) detection and CT imaging were performed before the experiment, after modeling (−4 w) and 3 months after treatment (12 w).
Periodontal probing depth (PD): The depth of the periodontal pocket on the mesiobuccal side of the tooth was recorded at a probing pressure of 20-25 g.
Gingival recession (GR): The distance from the cemento-enamel junction to the gingival margin was measured using a periodontal probe. If there was gingival recession, the cementoenamel junction was exposed, and the gingival margin was located at the root of the cementoenamel junction, then the distance between the two was recorded as a positive value; if there was no gingival recession, the gingival margin was located at the crown of the cementoenamel junction, then the distance between the two was recorded as a negative value.
Attachment loss (AL): The degree of attachment loss was determined by subtracting GR from the periodontal pocket depth. If the two numbers were subtracted to zero, or the cementoenamel junction cannot be detected, it means there was no attachment loss. If the gingival recession caused the gingival margin to locate at the root of the cementoenamel junction, the two numbers were added to obtain the degree of the attachment loss. • 2.1 Probing depth (PD) was shown in Table 17 and FIG. 10.

[3] = system: defected palatal mucosa of mice; assay: Palatal mucosa defect in mice; assay type: in vivo, Balb/c mice; details: for area of unhealed defected palatal mucosa: individual mice, FIG. 16
[4] = system: defected dorsal skin of mice; assay: Dorsal full-thickness skin defect in mice; assay type: in vivo, Balb/c mice; set-up: area of the defect region (dorsal skin): unit not given here; details: for area of the defect region (dorsal skin) / Healing rate (dorsal skin defect): individual mice; for Healing rate (dorsal skin defect): FIG. 18
Experimental: Fifteen 8-month-old male Balb/c mice were randomly divided into three groups: PBS group, control group and 114 group, with five mice in each group.
Before the establishment of the defect model, the mice were anaesthetized by injection of 4% chloral hydrate at 0.2 ml/20 g, and the skin was prepared. A circular full-thickness skin defect with a diameter of 6 mm on the back of the mice was created using a skin punch. On the day of the defect creation, the third day, the seventh day, the tenth day, the fourteenth day, the seventeenth day, and the twenty-first day after the defect creation, an equal amount of 100 μl of PBS, 10 μl/ml control peptide, and 10 μl/ml 114 peptide was separately injected at four equidistant sites at 2 mm from the edge of the defect.
The defect region was photographed before each injection, and the area of the defect region was calculated by using Image-Pro plus software. The healing rate was calculated as: healing rate=(area of the defect region on day 0-area of the defect region on day 14/21)/area of the defect region on day 0.

[5] = 0 w, 4 weeks after modeling without drug injection, listed as 114 peptide
[6] = 12 w after injection, listed as 114 peptide

FITC-(Acp)-ADLTISHCAADVVRAYGRKKRRQRRR [peptide 114]
new bone formation volume [1]: better and higher and 101.99 mm^3 and 80.68 mm^3 and 79.08 mm^3 and 80.48 mm^3 and 76.48 mm^3 and 85.49 mm^3 | attachment loss (AL) [2, 5]: 9.5 (3×) and 9 and 12 (2×) | gingival recession (GR) [2, 5]: 2.5 (3×) and 1 (2×) and 0.5 and 3 and 4.5 | probing depth (PD) [2, 5]: 7.5 (3×) and 8.5 and 7 and 8 and 9 (2×) | attachment loss (AL) [2, 6]: significantly lower and 3 and 2.5 and 1.5 and 4 | gingival recession (GR) [2, 6]: significantly lower and 0.5 and 1 | probing depth (PD) [2, 6]: significantly lower and 2.5 and 2 and 0.5 and 1 and 3 | mesenchymal stem cells-mediated regeneration of periodontal tissue ([2]; CT imaging, bone volume analysis and clinical examination): promoted | restoration effect of soft tissues (intraoral images) ([2]; week 12 after injection, FIG. 14): better | probing depth (PD) ([2]; −4 w, before drug injection, FIG. 10, listed as 114 peptide): 1 (7×) and 2 | gingival recession (GR) ([2]; −4 w, before drug injection, FIG. 12): 0 | healing of defected palatal mucosa (observation) ([3]; compared to PBS group and control peptide group, FIG. 15): obviously healed | area of unhealed defected palatal mucosa ([3]; day 14): 5.782 and 7.254 and 8.231 and 5.52 and 6.401 | area of unhealed defected palatal mucosa ([3]; day 21): 2.259 and 0.3319 and 1.964 and 2.33 and 2.213 | area of the defect region (dorsal skin) ([4]; Day 0): 6226 and 6554 and 6917 and 5532 and 4700 | area of the defect region (dorsal skin) ([4]; Day 10): 1396 and 3701 and 2313 and 983 and 1816 | Healing rate (dorsal skin defect) ([4]; Day 10): 0.7758 and 0.4353 and 0.6656 and 0.8223 and 0.6136 | area of the defect region (dorsal skin) ([4]; Day 14): 681 (2×) and 722 and 486 and 715 | Healing rate (dorsal skin defect) ([4]; Day 14): 0.8906 and 0.8898 and 0.9015 and 0.9121 and 0.8479 | healing of defected dorsal skin (observation) ([4]; days 0 and 14, compared to PBS and control peptide groups, FIG. 17): significant healing
